Test results: patent publication US10611774B2, “Salt form of DPPIV inhibitor and preparation method thereof” (SHANGHAI INSTITUTE OF MATERIA MEDICA, CHINESE ACADEMY OF …, priority 2016, dated 2020)

Columns and labels:
[1] = Hygroscopicity analysis (DVS); format: physicochemical; details: for hygroscopicity (DVS): 25° C.; for humidity variation range: conventional storage humidity range; for water absorbed: at 80% RH
Method: Dynamic vapor absorption (DVS) test/water absorption test rapidly measures the increase and loss of the moisture in the sample caused by flow carrier gas with set relative humidity (RH), wherein the sample is placed on a digital microbalance with high sensitivity and high stability at a self-suspension state, and then the adsorption/desorption of water vapor is measured by measuring the increase/decrease of mass of the material, thereby determining the hygroscopicity of the sample.
In the present invention, the test parameters of the DVS are as follows: Instrument type: SMS DVS Intrinsic; Non-hydrate: 0 to 95%-0% RH; Temperature: 25° C.; Hydrate: 40 to 95%-0% RH; Temperature: 25° C.

DPP IV [2] = biological target: T1, DPP IV (Rattus norvegicus, UniProt P14740); assay: Inhibition of DPP IV activity in normal rat plasma; format: in vivo
T1 construct: from tissue; host or cells: plasma of normal rats
T1 sequence (P14740 37-767 limits assumed): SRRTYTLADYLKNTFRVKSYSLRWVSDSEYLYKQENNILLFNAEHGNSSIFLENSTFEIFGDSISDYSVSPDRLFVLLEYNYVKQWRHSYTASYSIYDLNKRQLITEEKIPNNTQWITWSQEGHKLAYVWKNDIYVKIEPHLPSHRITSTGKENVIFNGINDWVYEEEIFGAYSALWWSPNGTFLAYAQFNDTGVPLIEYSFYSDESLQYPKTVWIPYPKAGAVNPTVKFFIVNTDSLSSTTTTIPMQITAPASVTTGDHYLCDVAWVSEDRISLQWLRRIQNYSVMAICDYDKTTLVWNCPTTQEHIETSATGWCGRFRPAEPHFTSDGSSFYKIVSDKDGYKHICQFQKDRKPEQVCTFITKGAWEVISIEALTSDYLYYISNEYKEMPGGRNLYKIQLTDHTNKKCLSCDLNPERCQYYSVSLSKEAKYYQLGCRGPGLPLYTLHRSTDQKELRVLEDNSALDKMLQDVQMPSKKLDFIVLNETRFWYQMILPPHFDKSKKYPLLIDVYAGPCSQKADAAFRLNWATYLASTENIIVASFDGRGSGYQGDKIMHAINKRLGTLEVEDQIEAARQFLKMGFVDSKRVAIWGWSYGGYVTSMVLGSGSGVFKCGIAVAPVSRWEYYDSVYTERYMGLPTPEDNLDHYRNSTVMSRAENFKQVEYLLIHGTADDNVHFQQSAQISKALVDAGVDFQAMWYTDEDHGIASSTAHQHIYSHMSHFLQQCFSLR

Pharmacokinetics in dogs = format: in vivo
rats = assay: Subacute toxicity experiment of rats; format: in vivo; details: 150 mg/kg orally administrated group
DPP IV [3] = biological target: DPP IV (Homo sapiens, UniProt P27487); assay: DPP IV inhibitory activity and selectivity in vitro; format: biochemical
DPP IV (Homo sapiens, UniProt P27487), sequence (P27487 whole entry, species assumed): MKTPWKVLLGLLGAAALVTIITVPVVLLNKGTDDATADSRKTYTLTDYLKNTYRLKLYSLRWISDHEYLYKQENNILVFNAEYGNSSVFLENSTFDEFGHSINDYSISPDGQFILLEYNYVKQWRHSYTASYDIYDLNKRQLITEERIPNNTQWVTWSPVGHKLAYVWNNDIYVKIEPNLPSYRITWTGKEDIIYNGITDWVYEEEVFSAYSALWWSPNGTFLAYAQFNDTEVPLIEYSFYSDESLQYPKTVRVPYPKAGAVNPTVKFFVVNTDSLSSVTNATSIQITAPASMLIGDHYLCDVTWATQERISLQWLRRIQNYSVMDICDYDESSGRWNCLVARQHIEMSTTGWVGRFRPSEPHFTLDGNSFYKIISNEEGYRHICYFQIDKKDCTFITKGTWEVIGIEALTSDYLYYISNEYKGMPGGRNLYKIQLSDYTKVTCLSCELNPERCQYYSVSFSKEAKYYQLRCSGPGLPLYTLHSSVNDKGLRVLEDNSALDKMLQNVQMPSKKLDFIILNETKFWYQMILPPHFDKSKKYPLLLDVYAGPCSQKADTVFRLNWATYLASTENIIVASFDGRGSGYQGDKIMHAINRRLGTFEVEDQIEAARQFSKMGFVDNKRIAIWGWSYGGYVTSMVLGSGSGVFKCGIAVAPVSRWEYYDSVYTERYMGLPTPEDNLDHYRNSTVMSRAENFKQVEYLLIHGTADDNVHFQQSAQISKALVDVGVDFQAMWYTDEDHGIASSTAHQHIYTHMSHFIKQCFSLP

Pharmacokinetics in rats = format: in vivo
DPP IV [4] = biological target: T2, DPP IV (Mus musculus, UniProt P28843); assay: Inhibition of DPP IV activity in normal mice plasma; format: in vivo
T2 construct: from tissue; host or cells: plasma of normal mice
T2 sequence (P28843 37-760 limits assumed): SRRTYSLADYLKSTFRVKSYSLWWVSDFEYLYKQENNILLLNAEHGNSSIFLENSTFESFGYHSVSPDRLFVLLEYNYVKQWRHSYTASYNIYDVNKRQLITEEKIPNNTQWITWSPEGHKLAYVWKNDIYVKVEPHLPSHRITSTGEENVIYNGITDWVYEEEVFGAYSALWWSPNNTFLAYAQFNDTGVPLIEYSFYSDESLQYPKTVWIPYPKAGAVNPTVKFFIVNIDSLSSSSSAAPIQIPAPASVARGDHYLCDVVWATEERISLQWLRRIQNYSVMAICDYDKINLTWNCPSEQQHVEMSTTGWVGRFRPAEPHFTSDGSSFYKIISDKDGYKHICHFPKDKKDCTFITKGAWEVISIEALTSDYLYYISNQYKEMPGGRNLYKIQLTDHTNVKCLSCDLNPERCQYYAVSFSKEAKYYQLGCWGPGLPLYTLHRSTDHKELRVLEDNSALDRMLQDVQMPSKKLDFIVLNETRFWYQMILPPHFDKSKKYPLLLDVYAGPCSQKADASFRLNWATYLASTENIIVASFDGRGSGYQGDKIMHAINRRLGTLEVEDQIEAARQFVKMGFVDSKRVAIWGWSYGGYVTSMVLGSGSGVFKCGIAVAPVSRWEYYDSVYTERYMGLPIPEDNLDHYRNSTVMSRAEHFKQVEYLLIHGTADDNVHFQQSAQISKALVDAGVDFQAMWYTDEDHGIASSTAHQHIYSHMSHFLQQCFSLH

normal ICR mice = assay: Oral glucose tolerance of normal ICR mice; format: in vivo
ob/ob mice = assay: Fasting blood glucose of ob/ob mice, chronic administration; format: in vivo
db/db mice = assay: Fasting blood glucose of gene-deficient db/db mice, chronic administration; format: in vivo
ICR mice = assay: Acute toxicity test of ICR mice; format: in vivo; details: 300 mg/kg administration group
[5] = versus sitagliptin and vildagliptin

COC(=O)c1cc2nc(N3CCC[C@@H](N)C3)n(Cc3ccccc3C#N)c(=O)c2s1.O=P(O)(O)O [phosphate, phosphate of (R)-methyl-2-(3-aminopiperidin-1-yl)-3-(2-cyanobenzyl)-4-carbonyl-3,4-dihydrothiophene[3,2-d]pyrimidine-6-carboxylic acid]
hygroscopicity (DVS) [1]: slightly hygroscopic
humidity variation range [1]: small

COC(=O)c1cc2nc(N3CCC[C@@H](N)C3)n(Cc3ccccc3C#N)c(=O)c2s1.O=C(O)/C=C\C(=O)O [maleate, maleate of (R)-methyl-2-(3-aminopiperidin-1-yl)-3-(2-cyanobenzyl)-4-carbonyl-3,4-dihydrothiophene[3,2-d]pyrimidine-6-carboxylic acid]
hygroscopicity (DVS) [1]: slightly hygroscopicity
water absorbed [1]: 1.57%
humidity variation range [1]: less than 2.0%

glycolate of (R)-methyl-2-(3-aminopiperidin-1-yl)-3-(2-cyanobenzyl)-4-carbonyl-3,4-dihydrothiophene[3,2-d]pyrimidine-6-carboxylic acid
hygroscopicity (DVS) [1]: slightly hygroscopic
water absorbed [1]: 1.23%
humidity variation range [1]: less than 2.0%

COC(=O)c1cc2nc(N3CCC[C@@H](N)C3)n(Cc3ccccc3C#N)c(=O)c2s1 [compound of formula I, (R)-methyl-2-(3-aminopiperidin-1-yl)-3-(2-cyanobenzyl)-4-carbonyl-3,4-dihydrothiophene[3,2-d]pyrimidine-6-carboxylic acid]
DPP IV inhibitory activity in animals compared with alogliptin (DPP IV [2]): superior to the marketed drug alogliptin
inhibition of DPP IV activity in plasma (DPP IV [2]): effective in inhibiting DPP IV activity
AUC0-t compared with alogliptin (Pharmacokinetics in dogs): superior to those of the marketed drug alogliptin
half-life compared with alogliptin (Pharmacokinetics in dogs): superior to those of the marketed drug alogliptin
subacute toxicity (rats): no obvious toxicity reaction
DPP IV inhibitory activity (DPP IV [3]; in vitro): up to nanomolar level
DPP IV inhibitory activity in vitro compared with marketed drugs (DPP IV [3]; [5]): superior to the marketed drugs, sitagliptin and vildagliptin
selectivity in vitro compared with marketed drugs (DPP IV [3]; [5]): superior to the marketed drugs, sitagliptin and vildagliptin
AUC0-t compared with alogliptin (Pharmacokinetics in rats): superior to those of the marketed drug alogliptin
half-life compared with alogliptin (Pharmacokinetics in rats): superior to those of the marketed drug alogliptin
DPP IV inhibitory activity in animals compared with alogliptin (DPP IV [4]): superior to the marketed drug alogliptin
inhibition of DPP IV activity in plasma (DPP IV [4]): effective in inhibiting DPP IV activity
effect on oral glucose tolerance (normal ICR mice): increase the oral glucose tolerance of normal ICR mice in a dose-dependent manner
onset dose, oral glucose tolerance (normal ICR mice): 0.1 mg/kg
oral glucose tolerance effect compared with alogliptin (normal ICR mice): better than alogliptin
effect on fasting blood glucose (ob/ob mice): effectively decrease fasting blood glucose
fasting blood glucose effect compared with positive control alogliptin (ob/ob mice): superior to the positive control drug alogliptin
effect on fasting blood glucose (db/db mice): reduce its fasting blood glucose
fasting blood glucose effect compared with positive control alogliptin (db/db mice): comparable to the positive control drug alogliptin
acute toxicity, animal death (ICR mice): no animal died

COC(=O)c1cc2nc(N3CCC[C@@H](N)C3)n(Cc3ccccc3C#N)c(=O)c2s1.Cl [hydrochloride, hydrochloride of (R)-methyl-2-(3-aminopiperidin-1-yl)-3-(2-cyanobenzyl)-4-carbonyl-3,4-dihydrothiophene [3,2-d] pyrimidine-6-carboxylic acid]
hygroscopicity (DVS) [1]: slightly hygroscopic
water absorbed [1]: 2.54%
humidity variation range [1]: less than 3.0%
